Laboratory results: patent publication US20120258038A1, “USES OF APOPTOTIC CELL-TARGETING PEPTIDES, LABEL SUBSTANCES AND LIPOSOMES CONTAINING A THERAPEUTIC AGENT FOR PREVENTING, TREATING OR THERAPEUTICALLY DIAGNOSING APOPTOSIS-RELATED DISEASES” (Kyungpook National University Industry-Academic Cooperation …, priority 2009, published 2012)

B1: annexin V: protein having a molecular weight of 36 kDa, binds to phosphatidylserine with strong affinity (protein, UniProt P08758 2-320, looked up)
Annexin A5: AQVLRGTVTDFPGFDERADAETLRKAMKGLGTDEESILTLLTSRSNAQRQEISAAFKTLFGRDLLDDLKSELTGKFEKLIVALMKPSRLYDAYELKHALKGAGTNEKVLTEIIASRTPEELRAIKQVYEEEYGSSLEDDVVGDTSGYYQRMLVVLLQANRDPDAGIDEAQVEQDAQALFQAGELKWGTDEEKFITIFGTRSVSHLRKVFDKYMTISGFQIEETIDRETSGNLEQLLLAVVKSIRSIPAYLAETLYYAMKGAGTDDHTLIRVMVSRSEIDLFNIRKEFRKNFATSLYSMIKGDTSGDYKKALLLLCGEDD

Tests used:
[1] = tested on: etoposide-treated apoptotic cells (A549, H460, HeLa, L132, RAW); assay: Microscopic observation of binding of the peptide to apoptotic cells; format: cell-based; settings: for labeling of etoposide-treated apoptotic cells: etoposide 50 μM; for labeling of etoposide-treated apoptotic cells / labeling of normal cells not treated with etoposide: fluorescence microscopy, fluorescein-labeled peptide 10 μM, alexa 594-labeled annexin V; for labeling of normal cells not treated with etoposide: 4° C., 1 hour
Experimental: Cells were cultured in a chamber slide (Nalgen Nunc), and treated with etoposide (Sigma) at a concentration of 50 μM for a given period of time to induce apoptosis (A549 and HeLa cells: for 15 hours, H460 cells: 24 hours, L132 cells: 3 hours, and RAW cells: 6 hours). The cells were cultured in RMPI-1640 medium (A549 and H460 cells) or DMEM medium (HeLa, L132 and RAW cells) containing antibiotics (penicillin and streptomycin) and 10% FBS. Meanwhile, all the cells were subcultured every 3 or 4 days. The apoptosis-induced apoptotic cells were washed with PBS, and blocked with 1% BSA at 37° C. for 30 minutes. Then, the cells were reacted with 10 μM of the peptide labeled with fluorescein, at 4° C. for 1 hour. After being washed, the cells were reacted with an annexin V reaction buffer solution containing alexa 594 (fluorescent reagent)-labeled annexin V (Molecular Probes) at room temperature for 15 minutes. The cells were washed with PBS, and then fixed with 4% paraformaldehyde for 5 minutes. Then, after counterstaining using the nuclear stain 4′,6-diamidino-2-phenylindole (DAPI), followed by treatment with a mounting solution (Molecular Probes), images of the cells were obtained under a fluorescence microscope (Zeiss).

apoptotic A549 cells = assay: Competitive inhibition of binding to apoptotic cells by annexin V pre-treatment; format: cell-based, human
Experimental: In order to further investigate the binding properties of the inventive peptide (ApoPep-1) to apoptotic cells, competitive inhibition by annexin V was measured. For this, first, apoptotic A549 cells were pretreated with annexin V, not labeled with fluorescence, at concentrations of 0, 200 and 1000 μM. Then, after the cells were reacted with fluorescence-labeled annexin V under the same condition as described in Example <2-1>, the binding of the cells was observed under a fluorescence microscope.
Meanwhile, apoptotic A549 cells were pre-treated with annexin V, not labeled with fluorescence, at a concentration of 1000 μM. Then, after the cells were reacted with fluorescence-labeled peptide under the same condition as described in Example <2-1>, the binding of the cells was observed under a fluorescence microscope.

A549 cells = assay: FACS analysis of binding to apoptotic cells; format: cell-based, human; settings: for percentage of cells bound/stained, early stage of apoptosis (fraction Q4) / percentage of cells bound/stained, later stage of apoptosis (fraction Q2): A549 cells treated with 50 μM etoposide for 15 hours, PI co-staining
Experimental: As another way of confirming the binding of the inventive peptide to apoptotic cells, apoptotic cells were treated with the inventive peptide labeled with fluorescein, and the binding was confirmed through FACS analysis. First, apoptosis was induced by treating A549 cells with 50 μM etoposide for 6 to 15 hours. The apoptotic cells or normal cells were reacted with the inventive ApoPep-1 peptide(5 μM) or a control peptide at the same concentration, labeled with fluorescein, at 4° C. for 1 hour. Meanwhile, the cells were reacted with fluorescein-labeled annexin V at room temperature for 15 minutes. After simultaneously staining the cells with propodium iodide (PI), followed by washing with PBS, FACS analysis was performed using a FACS instrument (Becton Dickinson).

Molecule | labeling of etoposide-treated apoptotic cells [1] | location of binding compared with annexin V (merged images) ([1]; etoposide-treated apoptotic cells) | labeling of normal cells not treated with etoposide [1] | binding of the peptide after pre-treatment with annexin V (apoptotic A549 cells; annexin V not labeled with fluorescence, 1000 μM) | binding to normal cells (A549 cells; A549 cells not treated with etoposide, 5 μM, fluorescein-labeled) | percentage of cells bound/stained, early stage of apoptosis (fraction Q4) (A549 cells) [%] | percentage of cells bound/stained, later stage of apoptosis (fraction Q2) (A549 cells) [%] | fluorescence of fluorescence-labeled annexin V after pre-treatment with annexin V not labeled with fluorescence (apoptotic A549 cells; pre-treatment 0, 200 and 1000 μM, high concentration)
CQRPPR (Apoptotic cell-targeting peptide, ApoPep-1) | labeling was observed | at the same locations | no labeling was observed | not inhibited | almost nonexistent | 90.3 | 7.2 | 
B1 | labeling was observed |  | no labeling was observed |  |  | 64.3 | 9.4 | significantly decreased
